This is an account of results in patent US20070009961A1, “Identification of targeting component of herbal medicines from simplified HPLC spectrum using after flowing through immobilized receptor (AFTIR) method” (Academia Sinica, priority 2005, published 2007).

Assay [1] has as its system CD28-independent IL-2 response of Jurkat cells. Description: Jurkat T-cell IL-2 secretion (ELISA), CD28-independent stimulation (PMA plus ionomycin). In kind it is cell-based, human. As for the experimental part: Stimulation of T-cell. Jurkat leukemic T cells were maintained in a humidified atmosphere of 5% CO2/95% air at 37° C. in RPMI-1640 medium (HyClone, Utah, USA) including penicillin, streptomycin and 10% heat-inactivated FBS. Two modes of activations were used for the present experiments: anti-CD3 plus anti-CD28 (CD28-dependent stimulation) and PMA plus ionomycin (CD28-independent stimulation). For experiment of CD28-dependant stimulation, flat-bottom 96-well plates were coated with 10 μg/ml of anti-CD3 for 24 h at 4° C. Wells anti-CD3 were washed twice with PBS. After washing, the unbounded anti-CD3 was removed. Jurkat T-cells (200 μl 2×10^6 cells/ml) with soluble anti-CD28 (1 μg/ml) were then added into the wells. The cells were activated by anti-CD3 already existing in the wells. Upon the activation, the cell solution was stayed for 24 h. The supernatant (100 μl) of cell solution was then used for the measurement of IL-2 by enzyme-linked immuno-sorbent assay (ELISA). For experiment of CD28-indepentant stimulation, 200 μl Jurkat cell (5×10^5 cell/ml) were incubated with PMA (50 nM)/lonomycin (1 μg/ml) for 24 h. 100 μl supernatant was then used for IL-2 measurement by ELISA. […] IL-2 concentration of T-cell was determined by following the instruction from manufacturer (Biosource; California, US). […] Concentration of IL-2 was then measured with microplate reader. […]
(In general: An ELISA detects its analyte on a solid surface through an enzyme-linked reagent.)

Assay [2] concerns the target T1, CD28-mulg (extracellular domain of human CD28 fused to murine IgG2a Fc), immobilized on CM5 chip (Homo sapiens, UniProt P10747).
T1 construct: soluble fusion protein consisting of the extracellular (134 aa) domain of human CD28; purchased ID Labs Inc; host or cells: CHO transfectants
Description: Surface plasmon resonance (BIAcore) binding to chip immobilised CD28 / AFTIR. From the text:
Receptors and proteins. Human CD28-mulg and CD80-mulg fusion proteins were purchased from ID Labs Inc. CD28-mulg is a soluble fusion protein consisting of the extracellular (134 aa) domain of human CD28 fused to murine IgG2a Fc (233 aa). CD80-mulg is a soluble fusion protein consisting of the extracellular (173 aa) domain of human CD80 fused to murine IgG2a Fc (232 aa). Both were purified from tissue culture supernatant of CHO transfectants by protein A and size exclusion chromatography. Anti-human CD28 antibody and anti-human CD3 antibody were purchased from BioLegend. In the experiments, the quantity of anti-CD28 and CD80 used is only around 2% the quantity of CD28 immobilized.
Surface plasmon resonance analysis. BIAcore 3000 (Biacore, Uppsala, Sweden) was employed for real-time biospecific interaction analysis. Binding analysis was performed at 25° C. with a flow rate of 10 μl/min. In general, proteins can be immobilized on the layer of carboxylated dextran in CM5 sensor chip (research grade; Biacore) by amine coupling. With each injection, samples were diluted in the running buffer HBS (10 mM HEPES, pH 7.4, 150 mM NaCl, 3.4 mM EDTA, 0.005% surfactant P20) to a final concentration of 15 to 30 μM. After each injection, flow-cell can be regenerated by flowing though the cell with the buffer containing 50 mM NaOH. Extracts were injected at different concentrations from 1.9 μM to 60 μM. The binding constant between immobilized receptor (imm-CD28) and ligand was determined using BIAevaluation 3.1 software (Biacore).
CD28-mulg, a soluble fusion protein consisting of the extracellular (134 aa) domain of human CD28 fused to murine IgG2a Fc (233 aa), was immobilized to dextran matrix on the sensor chip surface, via covalent coupling of primary amines (—NH2). In this report, the term CD28 will be used as shorthand for CD28-mulg. […]
The RU as shown in FIGS. 5b-5d is the actual RU subtracted by the “background RU”. […] Affinity binding constants (1/KD) can be obtained from KD, where KD is calculated from Scatchard plots. […]
Background: In SPR one partner is held on a chip, and binding of the other changes the refractive index at the surface.

In assay [3] the test system is CD28 dependent IL-2 expression in Jurkat cells. Description: Jurkat T-cell IL-2 secretion (ELISA), CD28-dependent stimulation (anti-CD3 plus anti-CD28). It is filed as cell-based, human. As for the experimental part: Stimulation of T-cell. Jurkat leukemic T cells were maintained in a humidified atmosphere of 5% CO2/95% air at 37° C. in RPMI-1640 medium (HyClone, Utah, USA) including penicillin, streptomycin and 10% heat-inactivated FBS. Two modes of activations were used for the present experiments: anti-CD3 plus anti-CD28 (CD28-dependent stimulation) and PMA plus ionomycin (CD28-independent stimulation). For experiment of CD28-dependant stimulation, flat-bottom 96-well plates were coated with 10 μg/ml of anti-CD3 for 24 h at 4° C. Wells anti-CD3 were washed twice with PBS. After washing, the unbounded anti-CD3 was removed. Jurkat T-cells (200 μl 2×10^6 cells/ml) with soluble anti-CD28 (1 μg/ml) were then added into the wells. The cells were activated by anti-CD3 already existing in the wells. Upon the activation, the cell solution was stayed for 24 h. The supernatant (100 μl) of cell solution was then used for the measurement of IL-2 by enzyme-linked immuno-sorbent assay (ELISA). For experiment of CD28-indepentant stimulation, 200 μl Jurkat cell (5×10^5 cell/ml) were incubated with PMA (50 nM)/lonomycin (1 μg/ml) for 24 h. 100 μl supernatant was then used for IL-2 measurement by ELISA. […] The culture supernatants in both modes were harvested after 24h incubation and then used for the measurements of IL-2. IL-2 measurement was done using the commercial available ELISA kit (Biosource; California, US). The details how to measure the concentration of IL-2 after T-cell is activated is shown below. IL-2 ELISA assay. IL-2 concentration of T-cell was determined by following the instruction from manufacturer (Biosource; California, US). A 96-well flat-bottom plate was coated with anti-IL-2 mAb (100 μl at 4 μg/ml) in phosphate-buffered saline (PBS; pH 7.3) at room temperature overnight. The plate was then washed with PBS containing 0.05% Tween 20 (PBS-T) three times. Subsequently, the plate was incubated with a blocking solution containing 1% bovine serum albumin in PBS for more than 1 hr. After washing by PBS-T, 100 μl supernatant mixed with biotinylated anti-IL-2 detection antibodies (50 μl at 12.5 ng/ml) was added into each well and stay for 2 hr. After washing, 100 μl streptavidin horseradish peroxidase (1/2000 dilution of a 1.25 mg/ml solution) was added and the solution was incubated for 30 min at room temperature. After washing, 100 μl substrate solution containing 1/1 mixture of H2O2 and tetramethylbenzidine was added and the solution was incubated for 25min at room temperature. The solution reaction involving the stimulated sample was ceased by the addition of 100 μl stop solution (1M H2SO4). Concentration of IL-2 was then measured with microplate reader. The amount of IL-2 was indicated by the relative percentage ([…] of IL-2 is defined as 100%). […]

In assay [4] the target is T2, CD28-mulg, soluble fusion protein consisting of the extracellular (134 aa) domain of human CD28 fused to … (human; murine, UniProt P10747 19-152).
T2 construct: extracellular domain; Bought from ID Labs Inc; purified from CHO transfectant supernatant; Coupled by primary amines to a CM5 sensor chip in all assays; also called imm-CD28; immobilized CD28; not shown: murine IgG2a Fc (233 aa)
Description: SPR, CD28-mulg on CM5 chip.

Like-named read-outs stand apart in the source and are kept apart here. Some results are limits rather than exact numbers.

As to `O=C(/C=C/c1ccc(O)c(O)c1)O[C@@H]1C[C@](O)(C(=O)O)C[C@@H](O)[C@H]1O` [C1, chlorogenic acid (5-O-caffeoylquinic acid)], the “effect on IL-2 response (in words)” value was “unable to modulate” in assay [1], “linearly reduces IL-2 response” in assay [3], “downregulates CD28 dependent interleukin-2 (IL-2) expression” in assay [3] (listed as Chlorogenic acid) and “downregulating CD28 dependent IL-2 expression” in assay [3] (listed as chlorogenic acid). Further, in assay [2] (bound CEE washed off the chip and profiled with HPLC), the “ability to bind CD28 (peak in HPLC profile after AFTIR)” value is on record as “can bind CD28”. The “downregulation of IL-2 secretion response” value in assay [3] (normalized to 100%) was −53%.

“CD80: soluble fusion protein: extracellular (173 aa) domain of human CD80 fused to murine IgG2a Fc” yielded a binding efficiency in assay [2] above 90%. For the same molecule, the “binding capacity ΔR on immobilised CD28” value in assay [2] (SPR, 10 μg/ml ligand) is reported as around 120 RU.

B1: CD80-mulg, soluble fusion protein consisting of the extracellular (173 aa) domain of human CD80 fused to murine IgG2a Fc (232 aa) (Fc fusion, UniProt P33681 35-242, looked up)
chain: VIHVTKEVKEVATLSCGHNVSVEELAQTRIYWQKEKKMVLTMMSGDMNIWPEYKNRTIFDITNNLSIVILALRPSDEGTYECVVLKYEKDAFKREHLAEVTLSVKADFPTPSISDFEIPTSNIRRIICSTSGGFPEPHLSWLENGEELNAINTTVSQDPETELYAVSSKLDFNMTTNHSFMCLIKYGHLRVNQTFNWNTTKQEHFPDN
notes: extracellular domain; Bought from ID Labs Inc; purified from CHO transfectant supernatant; Used as the soluble analyte in SPR; also called Human CD80-mulg; not shown: murine IgG2a Fc (232 aa)
For the molecule B1, in assay [4], the “ratio of binding receptor:ligand (mole:mole)” value is ~0.92 mole CD80 per mole imm-CD28.
